Laboratory results taken from patent US20090047246A1, “NOVEL INHIBITORS OF HEPATITIS C VIRUS REPLICATION” (InterMune, Inc., priority 2007, published 2009).

Target: T1, HCV NS3 helicase (Hepatitis C virus genotype 1b, UniProt P26663)
T1 construct: full-length NS3 (1-631), purified at Array BioPharma
Experiment: HCV Helicase Prompt FRET Assay (Example A)
Format: biochemical
Conditions: HCV NS3 helicase; tables do not say whether Example A or Example B assay; read-out: IC50 Activity
In short: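 Initial unwinding rates, monitored as FAM fluorescence gain (ex 485, em 535) over ~30 min at room temperature, gave IC50 via 4- or 5-parameter logistic fits. Reactions: 50 nM quenched duplex, 250 nM capture strand, 300 μM ATP, 5–6 nM NS3 1-631 after 5 min compound preincubation, MOPS pH 7.0 buffer, 2% DMSO.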

T1 sequence (P26663 1027-1657): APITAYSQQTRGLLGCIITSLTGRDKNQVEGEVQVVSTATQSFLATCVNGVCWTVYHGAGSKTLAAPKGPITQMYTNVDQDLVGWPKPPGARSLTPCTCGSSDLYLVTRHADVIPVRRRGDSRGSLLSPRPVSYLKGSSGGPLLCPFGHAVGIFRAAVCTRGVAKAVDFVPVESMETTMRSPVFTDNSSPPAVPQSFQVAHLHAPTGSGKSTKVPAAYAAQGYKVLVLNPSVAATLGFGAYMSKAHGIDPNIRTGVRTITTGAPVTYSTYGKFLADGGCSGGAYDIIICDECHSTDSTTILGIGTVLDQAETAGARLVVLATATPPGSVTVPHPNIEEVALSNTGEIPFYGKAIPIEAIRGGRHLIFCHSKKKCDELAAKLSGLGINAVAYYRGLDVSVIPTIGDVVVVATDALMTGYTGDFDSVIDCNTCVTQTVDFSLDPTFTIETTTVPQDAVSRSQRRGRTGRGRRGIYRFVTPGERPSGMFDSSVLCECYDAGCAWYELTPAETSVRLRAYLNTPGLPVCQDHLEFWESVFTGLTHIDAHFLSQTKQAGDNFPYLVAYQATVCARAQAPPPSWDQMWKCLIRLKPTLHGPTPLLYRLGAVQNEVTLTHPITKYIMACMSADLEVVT

SMILES	IC50 [µM]
C=CCn1c(Cc2csc3ccc(Cl)cc23)c(CC(=O)O)c2ccc(OCc3ccccc3)cc21 [Example 367]	< 10
COc1ccc2c(CC(=O)O)cn(-c3ccc([N+](=O)[O-])cc3C)c2c1 [Example 341]	> 50
Cc1oncc1C(=O)Nc1ccc(-n2cc(CC(=O)O)c3ccccc32)cc1 [Example 163]	10 to 50
CN(Cc1cccnc1)c1ccc(-n2cc(CC(=O)O)c3ccccc32)cc1 [Example 180]	10 to 50
O=C(O)Cc1cn(-c2ccc(NC(=O)Cc3ccsc3)cc2)c2ccccc12 [Example 164]	10 to 50
N#Cc1ccnc(-n2cc(CP(=O)(O)O)c3cc(Br)ccc32)c1 [Example 316]	10 to 50
CSc1cccc(-c2cccc(Cc3[nH]c4ccccc4c3CC(=O)O)c2)c1 [Example 297]	< 10
Cc1cc(NC(=O)CSc2ccccc2)ccc1-n1cc(CC(=O)O)c2ccccc21 [Example 159]	10 to 50
O=C(O)Cc1cn(Cc2csc3ccc(F)cc23)c2ccccc12 [Example 133]	10 to 50
Cc1c(Cl)cccc1-c1ccc(-n2cc(CC(=O)O)c3ccccc32)cc1 [Example 150]	< 10
CCNC(=O)Cc1cn(Cc2cccc(OCc3ccccc3)c2)c2ccc(OCc3ccccc3)cc12 [Example 186]	10 to 50
CCCNC(=O)Cc1cn(Cc2cccc(OCc3ccccc3)c2)c2ccc(Br)cc12 [Example 183]	10 to 50
O=C(O)Cc1cn(-c2ccc3c(c2)CCC3=O)c2ccccc12 [Example 148]	10 to 50
O=C(Cn1cc(Cc2nnn[nH]2)c2ccccc21)N1CCC(Cc2ccccc2)CC1 [Example 206]	10 to 50
O=C(O)Cc1cn(-c2ccc(-c3cccc(C(F)(F)F)c3)cc2)c2ccccc12 [Example 152]	< 10
O=C(O)Cc1c(C(=O)c2ccc(-c3ccncc3)cc2)[nH]c2ccccc12 [Example 247]	10 to 50
O=C(O)Cc1c(Cc2csc3ccc(Cl)cc23)[nH]c2ccc(Br)cc12 [Example 374]	10 to 50
CCOC(=O)C(=O)c1cn(-c2ccc([N+](=O)[O-])cc2C)c2ccc(Br)cc12 [Example 379]	10 to 50
O=C(O)Cc1c(C(=O)c2ccc(-c3ccccc3)cc2)[nH]c2ccc(Br)cc12 [Example 312]	10 to 50

SMILES	IC50 [µM]
CCOc1ccc2c(CC(=O)O)cn(Cc3csc4ccc(Cl)cc34)c2c1 [Example 349]	10 to 50
O=C(O)Cc1c(Cc2ccc(-c3ccccc3)cc2)sc2ccccc12 [Example 306]	< 10
O=C(O)Cc1c(C(=O)c2ccc(-c3ccc(Cl)c(Cl)c3)cc2)[nH]c2ccccc12 [Example 257]	< 10
O=C(O)Cc1c(Cc2cccc(-c3cccc(C(F)(F)F)c3)c2)[nH]c2ccccc12 [Example 296]	< 10
O=C(O)Cc1c(Cc2ccc(-c3ccc(Cl)cc3Cl)cc2)[nH]c2ccccc12 [Example 289]	< 10
CSc1ccccc1-c1ccc(C(=O)c2[nH]c3ccccc3c2CC(=O)O)cc1 [Example 271]	10 to 50
O=C(Cc1cn(Cc2csc3ccc(Cl)cc23)c2ccccc12)NS(=O)(=O)c1ccccc1 [Example 199]	10 to 50
O=C(Cc1cn(Cc2cccc(OCc3ccccc3)c2)c2ccc(OCc3ccccc3)cc12)NCC1CC1 [Example 190]	10 to 50
O=C(O)Cc1cn(Cc2cccc(-c3ccccc3)c2)c2ccc(OCc3ccccc3)cc12 [Example 112]	< 10
Cc1cc([N+](=O)[O-])ccc1-n1cc(C(=O)C(N)=O)c2cc(Br)ccc21 [Example 384]	> 50
COC(=O)C(Cc1ccccc1)c1cn(-c2ccc([N+](=O)[O-])cc2C)c2ccc(Br)cc12 (centres unmarked) [Example 397]	> 50
O=C(O)Cc1c(C(=O)Cc2ccccc2)n(Cc2ccccc2)c2ccccc12 [Example 258]	10 to 50
O=C(Cc1cn(Cc2cccc(CCc3ccccc3)c2)c2ccc(Br)cc12)N1CCCC1 [Example 184]	10 to 50
O=C(O)Cc1c(C(=O)c2ccc(-c3c(Cl)cccc3Cl)cc2)[nH]c2ccccc12 [Example 273]	10 to 50
O=C(O)C(Cc1csc2ccc(Cl)cc12)c1cn(Cc2csc3ccc(Cl)cc23)c2cc(Br)ccc12 (centres unmarked) [Example 360]	< 10
C#Cc1cn(-c2ccc([N+](=O)[O-])cc2C)c2ncc(Br)cc12 [Example 321]	> 50
O=C(O)Cc1cn(Cc2cccc(-c3cncnc3)c2)c2ccc(OCc3ccccc3)cc12 [Example 119]	10 to 50
Cc1cc([N+](=O)[O-])ccc1-n1cc(CC(=O)O)c2cccnc21 [Example 319]	> 50

Further lines, results first:

IC50 [µM]	SMILES
< 10	O=C(O)Cc1cn(Cc2ccc(Oc3ccc(C(F)(F)F)cc3)cc2)c2ccccc12 [Example 504]
< 10	O=C(O)Cc1cn(Cc2ccc(Oc3ccc(Cl)c(Cl)c3)cc2)c2ccccc12 [Example 507]
10 to 50	CC(C)c1ccc(Cn2c(C(=O)NCc3ccccc3)c(CC(=O)O)c3cc(Br)ccc32)cc1 [Example 440]
< 10	COc1ccc(OC)c(N(C)c2cccc(Cn3cc(CC(=O)O)c4ccccc43)c2)c1 [Example 543]
< 10	O=C(O)Cc1cn(Cc2cccc(Oc3ccc(Cl)c(Cl)c3)c2)c2ccccc12 [Example 486]
< 10	CC(C)c1ccc(Cn2c(C(=O)NCc3ccc(Cl)cc3)c(CC(=O)O)c3ccccc32)cc1 [Example 450]
10 to 50	CC(C)c1ccc(Cn2cc(C(NC(N)=O)C(=O)O)c3ccccc32)cc1 (centres unmarked) [Example 423]
< 10	CC(C)c1ccc(Cn2c(C(=O)NCc3ccc(OC(F)(F)F)cc3)c(CC(=O)O)c3ccccc32)cc1 [Example 454]
< 10	O=C(O)Cc1cn(Cc2ccc(Oc3ccc(Cl)cc3)cc2)c2ccccc12 [Example 498]
< 10	CCOC(=O)Cc1cn(Cc2cccc(N(C)c3cc(Cl)ccc3Cl)c2)c2ccccc12 [Example 548]
10 to 50	CC(C)NC(=O)c1c(CC(=O)O)c2cc(Br)ccc2n1Cc1ccc(C(C)C)cc1 [Example 433]
< 10	CN(c1cccc(Cn2cc(CC(=O)O)c3ccccc32)c1)c1cccc(F)c1F [Example 533]
< 10	CC(C)c1ccc(Cn2c(C(=O)NCc3nc4ccccc4[nH]3)c(CC(=O)O)c3ccccc32)cc1 [Example 449]
> 50	Cc1cc([N+](=O)[O-])ccc1-n1cc(C(O)(C(=O)N2CCCC2)C(F)(F)F)c2cc(Br)ccc21 (centres unmarked) [Example 402]
> 50	O=C(O)c1cccc2c1c1ccccc1n2Cc1ccccc1 [Example 465]
< 10	O=C(O)Cc1cn(Cc2ccc(Oc3cccc(F)c3)cc2)c2ccccc12 [Example 518]
< 10	CC(C)c1ccc(Cn2c(C(=O)Nc3cccc(NS(C)(=O)=O)c3)c(CC(=O)O)c3ccccc32)cc1 [Example 462]
< 10	O=C(O)Cc1cn(Cc2ccc(Oc3ccc(F)cc3)cc2)c2ccccc12 [Example 495]

Same assay, conditions: Table 21, compounds made using Scheme 28; read-out: IC50 Activity

IC50 [µM]	SMILES
< 10	CN(c1ccc(Cn2cc(CC(=O)O)c3ccccc32)cc1)c1ccc(C(F)(F)F)cc1C(F)(F)F [Example 580]
< 10	CN(c1ccc(Cn2cc(CC(=O)O)c3ccccc32)cc1)c1cccc(F)c1F [Example 568]
< 10	COc1ccc(N(C)c2ccc(Cn3cc(CC(=O)O)c4ccccc43)cc2)cc1 [Example 564]

Same assay, conditions: Table 23, compounds made using Scheme 30; read-out: IC50 Activity

IC50 [µM]	SMILES
< 10	O=C(O)Cc1cn(Cc2cccc(Oc3ccc(C(F)(F)F)cc3C(F)(F)F)c2)c2ccccc12 [Example 597]

Same assay, conditions: Table 25, compounds made using Scheme 32; read-out: IC50 Activity

IC50 [µM]	SMILES
10 to 50	CCOC(=O)Cc1cn(Cc2ccc(Oc3ccc(C(F)(F)F)cc3)cc2)c2cc(-c3cc(N)cc(N)c3)ccc12 [Example 608]

Same assay, conditions: Table 31, compounds made using Schemes 38-45; read-out: IC50 Activity

IC50 [µM]	SMILES
10 to 50	Nn1c(=O)[nH]cc(-c2ccc3c(CC(=O)O)cn(Cc4csc5ccc(Cl)cc45)c3c2)c1=O [Example 652]
< 10	CC(C)Nc1cc(NC(C)C)cc(-c2ccc3c(CC(=O)O)cn(Cc4csc5ccc(Cl)cc45)c3c2)c1 [Example 649]
< 10	Nc1nc(Cl)c(C=O)c(-c2ccc3c(CC(=O)O)cn(Cc4csc5ccc(Cl)cc45)c3c2)n1 [Example 637]

Same assay, conditions: Table 34, compounds made using Schemes 51-52; read-out: IC50 Activity

IC50 [µM]	SMILES
> 50	Cn1cc(CC(=O)O)c2ccc(-c3cc(N)cc(N)c3)cc21 [Example 675]
10 to 50	Cc1cc([N+](=O)[O-])ccc1-n1cc(C(NC(=O)C2CCN(C(=O)OC(C)(C)C)CC2)C(=O)O)c2ccccc21 (centres unmarked) [Example 673]
10 to 50	Cc1cc([N+](=O)[O-])ccc1-n1cc(C(NC(=O)C2CCCN2C(=O)OC(C)(C)C)C(=O)O)c2ccccc21 (centres unmarked) [Example 671]

Same assay, conditions: Table 35, compounds made using Scheme 53; read-out: IC50 Activity

IC50 [µM]	SMILES
10 to 50	Nc1cc(N)cc(-c2ccc3c(CC(=O)O)cn(Cc4csc5ccc(Br)cc45)c3c2)c1 [Example 734]

Same assay, conditions: Table 36, compounds made using Scheme 54; read-out: IC50 Activity

IC50 [µM]	SMILES
10 to 50	Nc1cc(N)cc(-c2ccc3c(CC(=O)O)cn(Cc4csc5ccc(OC(F)(F)F)cc45)c3c2)c1 [Example 719]
> 50	CCOC(=O)Cc1cn(Cc2csc3c(Cl)c(Cl)ccc23)c2cc(Br)ccc12 [Example 779]
< 10	CCc1sc2ccc(Cl)cc2c1Cn1cc(CC(=O)O)c2ccc(-c3cc(N)cc(N)c3)cc21 [Example 721]
> 50	O=C(O)Cc1cn(Cc2csc3cc(Cl)ccc23)c2cc(Br)ccc12 [Example 785]

Same assay, conditions: Table 37, compounds made using Scheme 55; read-out: IC50 Activity

IC50 [µM]	SMILES
> 50	O=C(O)Cc1cn(Cc2csc3ccc(Cl)cc23)c2cc(-c3cccc(F)c3)ccc12 [Example 759]
10 to 50	CN(C)C(=O)c1cccc(-c2ccc3c(CC(=O)O)cn(Cc4csc5ccc(Cl)cc45)c3c2)c1 [Example 761]

Same assay, conditions: numeric bound instead of class symbol; read-out: IC50 Activity

IC50 [µM]	SMILES
> 20	COC(=O)C(c1ccc([N+](=O)[O-])cc1C)C1CN(c2ccc([N+](=O)[O-])cc2C)c2ccc(Br)cc21 (centres unmarked) [Example 403]
